Results taken from paper PMC6986443, “T‐495, a novel low cooperative M1 receptor positive allosteric modulator, improves memory deficits associated with cholinergic dysfunction and is characterized by low gastrointestinal side effect risk” (Pharmacology Research & Perspectives, 2020).

Key:
Experiment in all cases: Selectivity panel
Type in all cases: binding
Adenosine A1 = biological target: T1, Adenosine A1 (Homo sapiens, UniProt P30542)
T1 construct: purchased Eurofins Panlabs Taiwan Ltd
Excerpt: (§1) The selectivity of T‐495 at 10 μmol/L against a panel of 106 targets, including receptors, enzymes, ion channels, and transporters, was characterized (Eurofins Panlabs Taiwan Ltd., Taipei, Taiwan).

Adenosine A2A = biological target: T2, Adenosine A2A (Homo sapiens, UniProt P29274)
T2 construct: purchased Eurofins Panlabs Taiwan Ltd
Excerpt: as §1

Adenosine A2B = biological target: T3, Adenosine A2B (Homo sapiens, UniProt P29275)
T3 construct: purchased Eurofins Panlabs Taiwan Ltd
Excerpt: as §1

[1] = tested on: Adrenergic α1, non-selective
Excerpt: as §1

[2] = tested on: Adrenergic α2, non-selective
Excerpt: as §1

Androgen (testosterone) = tested on: Androgen (testosterone)
Excerpt: as §1

Angiotensin AT1 = biological target: T4, Angiotensin AT1 (Homo sapiens, UniProt P30556)
T4 construct: purchased Eurofins Panlabs Taiwan Ltd
Excerpt: as §1

[3] = tested on: Calcium channel L-type, phenylalkylamine
Excerpt: as §1

Calcium channel N-type = biological target: T5, Calcium channel N-type (Rattus norvegicus, UniProt Q02294)
T5 construct: purchased Eurofins Panlabs Taiwan Ltd
Excerpt: as §1

Cannabinoid CB2 = biological target: T6, Cannabinoid CB2 (Homo sapiens, UniProt P34972)
T6 construct: purchased Eurofins Panlabs Taiwan Ltd
Excerpt: as §1

[4] = biological target: T7, Cholecystokinin CCK1 (CCKA) (Homo sapiens, UniProt P32238)
T7 construct: purchased Eurofins Panlabs Taiwan Ltd
Excerpt: as §1

[5] = biological target: T8, Cholecystokinin CCK2 (CCKB) (Homo sapiens, UniProt P32239)
T8 construct: purchased Eurofins Panlabs Taiwan Ltd
Excerpt: as §1

Dopamine D3 = biological target: T9, Dopamine D3 (Homo sapiens, UniProt P35462)
T9 construct: purchased Eurofins Panlabs Taiwan Ltd
Excerpt: as §1

Dopamine D4.2 = tested on: Dopamine D4.2
Excerpt: as §1

[6] = tested on: Estrogen Receptor (non-selective)
Excerpt: as §1

GABAB1B = biological target: T10, GABAB1B (Homo sapiens, UniProt Q9UBS5)
T10 construct: purchased Eurofins Panlabs Taiwan Ltd
Excerpt: as §1

Glucocorticoid = biological target: T11, Glucocorticoid (Homo sapiens, UniProt P04150)
T11 construct: purchased Eurofins Panlabs Taiwan Ltd
Excerpt: as §1

Glutamate, NMDA = tested on: Glutamate, NMDA
Excerpt: as §1

Imidazoline I2, central = tested on: Imidazoline I2, central
Excerpt: as §1

Melatonin MT1 = biological target: T12, Melatonin MT1 (Homo sapiens, UniProt P48039)
T12 construct: purchased Eurofins Panlabs Taiwan Ltd
Excerpt: as §1

Muscarinic M1 = biological target: T13, Muscarinic M1 (Homo sapiens, UniProt P11229)
T13 construct: purchased Eurofins Panlabs Taiwan Ltd
Excerpt: as §1

Opiate δ1 (OP1, DOP) = biological target: T14, Opiate δ1 (OP1, DOP) (Homo sapiens, UniProt P41143)
T14 construct: purchased Eurofins Panlabs Taiwan Ltd
Excerpt: as §1

Opiate κ (OP2, KOP) = biological target: T15, Opiate κ (OP2, KOP) (Homo sapiens, UniProt P41145)
T15 construct: purchased Eurofins Panlabs Taiwan Ltd
Excerpt: as §1

Potassium channel (KATP) = tested on: Potassium channel (KATP)
Excerpt: as §1

Potassium channel (SKCA) = tested on: Potassium channel (SKCA)
Excerpt: as §1

Progesterone PR-B = biological target: T16, Progesterone PR-B (Homo sapiens, UniProt P06401)
T16 construct: purchased Eurofins Panlabs Taiwan Ltd
Excerpt: as §1

Serotonin 5-HT1A = biological target: T17, Serotonin 5-HT1A (Homo sapiens, UniProt P08908)
T17 construct: purchased Eurofins Panlabs Taiwan Ltd
Excerpt: as §1

Serotonin 5-HT2A = biological target: T18, Serotonin 5-HT2A (Homo sapiens, UniProt P28223)
T18 construct: purchased Eurofins Panlabs Taiwan Ltd
Excerpt: as §1

Serotonin 5-HT2B = biological target: T19, Serotonin 5-HT2B (Homo sapiens, UniProt P41595)
T19 construct: purchased Eurofins Panlabs Taiwan Ltd
Excerpt: as §1

Serotonin 5-HT4 = tested on: Serotonin 5-HT4
Excerpt: as §1

Sigma, non-selective = tested on: Sigma, non-selective
Excerpt: as §1

Sodium channel, Site 2 = tested on: Sodium channel, Site 2
Excerpt: as §1

Tachykinin NK3 = biological target: T20, Tachykinin NK3 (Homo sapiens, UniProt P29371)
T20 construct: purchased Eurofins Panlabs Taiwan Ltd
Excerpt: as §1

Transporter, GABA = tested on: Transporter, GABA
Excerpt: as §1

[7] = biological target: T21, Transporter, dopamine (DAT) (Homo sapiens, UniProt Q01959)
T21 construct: purchased Eurofins Panlabs Taiwan Ltd
Excerpt: as §1

[8] = biological target: T22, Transporter, norepinephrine (NET) (Homo sapiens, UniProt P23975)
T22 construct: purchased Eurofins Panlabs Taiwan Ltd
Excerpt: as §1

Vasopressin V1A = biological target: T23, Vasopressin V1A (Homo sapiens, UniProt P37288)
T23 construct: purchased Eurofins Panlabs Taiwan Ltd
Excerpt: as §1

Vasopressin V2 = biological target: T24, Vasopressin V2 (Homo sapiens, UniProt P30518)
T24 construct: purchased Eurofins Panlabs Taiwan Ltd
Excerpt: as §1

T8 sequence (P32239 whole entry): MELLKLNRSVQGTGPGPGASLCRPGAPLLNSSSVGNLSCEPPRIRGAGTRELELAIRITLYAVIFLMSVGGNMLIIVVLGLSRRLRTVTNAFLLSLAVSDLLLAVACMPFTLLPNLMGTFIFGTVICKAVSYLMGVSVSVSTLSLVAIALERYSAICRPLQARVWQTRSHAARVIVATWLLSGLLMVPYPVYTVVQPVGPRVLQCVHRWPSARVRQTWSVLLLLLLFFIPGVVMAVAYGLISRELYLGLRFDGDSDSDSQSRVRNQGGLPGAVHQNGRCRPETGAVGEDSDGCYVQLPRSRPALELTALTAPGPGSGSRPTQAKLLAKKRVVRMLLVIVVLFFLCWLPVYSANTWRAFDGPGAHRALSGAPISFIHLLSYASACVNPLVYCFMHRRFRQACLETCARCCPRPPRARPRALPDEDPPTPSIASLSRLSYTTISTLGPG
T9 sequence (P35462 whole entry): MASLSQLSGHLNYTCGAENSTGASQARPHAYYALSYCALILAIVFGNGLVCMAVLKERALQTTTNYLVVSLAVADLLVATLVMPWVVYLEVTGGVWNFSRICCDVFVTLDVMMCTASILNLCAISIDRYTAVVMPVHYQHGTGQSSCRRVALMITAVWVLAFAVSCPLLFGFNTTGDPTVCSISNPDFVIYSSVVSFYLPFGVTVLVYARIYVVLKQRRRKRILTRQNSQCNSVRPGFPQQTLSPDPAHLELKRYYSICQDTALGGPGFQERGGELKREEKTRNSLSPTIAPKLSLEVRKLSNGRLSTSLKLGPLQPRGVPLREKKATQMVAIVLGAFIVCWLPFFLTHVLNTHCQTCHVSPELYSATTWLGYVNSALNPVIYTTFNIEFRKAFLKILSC
T10 sequence (Q9UBS5 1-844 isoform Q9UBS5-2): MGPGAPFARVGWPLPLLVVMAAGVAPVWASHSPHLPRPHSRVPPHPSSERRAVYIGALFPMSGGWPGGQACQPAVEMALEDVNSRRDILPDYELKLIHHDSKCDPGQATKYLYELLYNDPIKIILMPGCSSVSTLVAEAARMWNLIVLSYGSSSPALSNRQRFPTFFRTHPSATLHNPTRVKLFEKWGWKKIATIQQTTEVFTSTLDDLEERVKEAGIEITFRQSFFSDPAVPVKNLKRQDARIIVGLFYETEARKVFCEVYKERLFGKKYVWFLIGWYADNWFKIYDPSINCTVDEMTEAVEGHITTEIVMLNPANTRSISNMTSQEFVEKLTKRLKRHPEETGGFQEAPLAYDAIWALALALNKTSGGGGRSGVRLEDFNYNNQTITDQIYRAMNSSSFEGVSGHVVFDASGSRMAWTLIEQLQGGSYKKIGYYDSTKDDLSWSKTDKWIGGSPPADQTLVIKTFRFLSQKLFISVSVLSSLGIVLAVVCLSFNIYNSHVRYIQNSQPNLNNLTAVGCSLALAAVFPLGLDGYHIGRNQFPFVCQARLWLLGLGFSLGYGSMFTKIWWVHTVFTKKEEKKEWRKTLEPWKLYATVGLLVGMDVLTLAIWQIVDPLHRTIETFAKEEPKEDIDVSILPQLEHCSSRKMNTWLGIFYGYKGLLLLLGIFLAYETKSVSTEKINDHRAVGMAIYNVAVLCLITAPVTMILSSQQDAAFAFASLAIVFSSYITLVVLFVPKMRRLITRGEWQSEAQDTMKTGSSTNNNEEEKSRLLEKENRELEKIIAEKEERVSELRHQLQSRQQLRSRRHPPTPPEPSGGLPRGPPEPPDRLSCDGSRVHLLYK
T10 sequence (O75899 42-941 partner): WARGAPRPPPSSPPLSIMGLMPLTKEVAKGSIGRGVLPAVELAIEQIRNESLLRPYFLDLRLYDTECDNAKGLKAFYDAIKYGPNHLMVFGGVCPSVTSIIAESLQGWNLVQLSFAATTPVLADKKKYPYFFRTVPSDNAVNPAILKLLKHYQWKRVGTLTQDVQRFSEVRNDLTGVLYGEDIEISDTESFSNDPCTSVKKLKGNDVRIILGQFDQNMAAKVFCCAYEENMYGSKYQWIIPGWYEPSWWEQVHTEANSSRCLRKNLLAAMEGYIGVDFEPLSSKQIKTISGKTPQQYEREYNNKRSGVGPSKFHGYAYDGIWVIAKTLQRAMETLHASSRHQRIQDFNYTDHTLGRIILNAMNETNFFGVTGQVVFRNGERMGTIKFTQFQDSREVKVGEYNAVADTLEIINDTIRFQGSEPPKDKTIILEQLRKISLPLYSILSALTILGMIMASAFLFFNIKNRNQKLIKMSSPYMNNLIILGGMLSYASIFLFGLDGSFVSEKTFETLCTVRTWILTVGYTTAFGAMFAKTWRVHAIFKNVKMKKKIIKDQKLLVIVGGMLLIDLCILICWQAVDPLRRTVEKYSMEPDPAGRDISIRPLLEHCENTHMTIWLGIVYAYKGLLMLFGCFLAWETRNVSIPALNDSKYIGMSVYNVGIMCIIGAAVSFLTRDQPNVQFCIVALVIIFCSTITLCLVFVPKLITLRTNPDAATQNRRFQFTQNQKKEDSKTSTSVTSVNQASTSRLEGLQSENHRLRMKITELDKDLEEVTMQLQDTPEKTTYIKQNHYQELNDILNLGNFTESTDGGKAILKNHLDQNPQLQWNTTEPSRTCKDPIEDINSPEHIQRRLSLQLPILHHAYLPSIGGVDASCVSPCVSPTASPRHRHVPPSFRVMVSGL
T19 sequence (P41595 whole entry): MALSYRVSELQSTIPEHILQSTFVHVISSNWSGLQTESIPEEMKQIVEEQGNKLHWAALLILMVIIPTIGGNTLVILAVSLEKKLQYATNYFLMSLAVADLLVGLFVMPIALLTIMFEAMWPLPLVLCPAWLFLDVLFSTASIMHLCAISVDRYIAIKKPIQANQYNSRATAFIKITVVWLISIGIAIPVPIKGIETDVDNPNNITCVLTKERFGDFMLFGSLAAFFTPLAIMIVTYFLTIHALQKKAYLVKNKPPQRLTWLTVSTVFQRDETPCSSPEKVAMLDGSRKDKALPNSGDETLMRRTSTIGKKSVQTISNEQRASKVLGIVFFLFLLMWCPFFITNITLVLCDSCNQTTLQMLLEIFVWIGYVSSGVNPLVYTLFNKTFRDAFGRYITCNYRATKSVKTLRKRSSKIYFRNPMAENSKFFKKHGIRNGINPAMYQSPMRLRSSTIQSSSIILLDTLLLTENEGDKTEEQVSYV
T23 sequence (P37288 whole entry): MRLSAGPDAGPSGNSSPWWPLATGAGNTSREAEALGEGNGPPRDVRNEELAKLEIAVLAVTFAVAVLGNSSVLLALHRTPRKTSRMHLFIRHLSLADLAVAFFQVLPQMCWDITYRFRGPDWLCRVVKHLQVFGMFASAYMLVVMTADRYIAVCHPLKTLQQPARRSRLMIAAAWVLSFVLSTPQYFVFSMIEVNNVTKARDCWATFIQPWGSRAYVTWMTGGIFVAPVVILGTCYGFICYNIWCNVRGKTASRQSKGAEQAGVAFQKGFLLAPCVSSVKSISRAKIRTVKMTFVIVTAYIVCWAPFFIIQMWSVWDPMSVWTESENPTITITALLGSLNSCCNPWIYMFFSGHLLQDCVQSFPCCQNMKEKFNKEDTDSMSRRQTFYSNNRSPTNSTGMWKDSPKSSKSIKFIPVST
T17 sequence (P08908 whole entry): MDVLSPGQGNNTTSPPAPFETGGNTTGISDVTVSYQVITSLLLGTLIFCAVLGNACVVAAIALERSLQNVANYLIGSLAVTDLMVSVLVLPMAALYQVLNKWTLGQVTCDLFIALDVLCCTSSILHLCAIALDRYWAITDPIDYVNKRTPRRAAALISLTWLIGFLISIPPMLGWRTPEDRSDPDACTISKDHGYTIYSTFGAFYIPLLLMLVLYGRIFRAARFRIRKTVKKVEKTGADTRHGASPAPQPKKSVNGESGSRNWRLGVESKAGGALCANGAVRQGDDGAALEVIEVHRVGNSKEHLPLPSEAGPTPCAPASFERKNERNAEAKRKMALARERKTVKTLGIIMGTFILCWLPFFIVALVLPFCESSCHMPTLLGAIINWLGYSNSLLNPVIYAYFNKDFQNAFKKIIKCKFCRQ
T13 sequence (P11229 whole entry): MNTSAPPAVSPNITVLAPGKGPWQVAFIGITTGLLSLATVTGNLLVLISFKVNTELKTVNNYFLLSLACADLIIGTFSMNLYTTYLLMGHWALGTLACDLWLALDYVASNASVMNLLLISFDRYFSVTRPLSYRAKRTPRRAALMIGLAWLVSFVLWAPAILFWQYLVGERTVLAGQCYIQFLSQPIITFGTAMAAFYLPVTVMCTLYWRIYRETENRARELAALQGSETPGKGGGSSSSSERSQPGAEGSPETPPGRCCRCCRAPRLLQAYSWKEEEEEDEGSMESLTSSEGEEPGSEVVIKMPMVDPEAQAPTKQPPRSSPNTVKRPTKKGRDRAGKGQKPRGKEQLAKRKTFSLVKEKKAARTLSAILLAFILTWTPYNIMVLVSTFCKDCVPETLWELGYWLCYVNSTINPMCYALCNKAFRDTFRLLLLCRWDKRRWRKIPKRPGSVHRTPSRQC
T7 sequence (P32238 whole entry): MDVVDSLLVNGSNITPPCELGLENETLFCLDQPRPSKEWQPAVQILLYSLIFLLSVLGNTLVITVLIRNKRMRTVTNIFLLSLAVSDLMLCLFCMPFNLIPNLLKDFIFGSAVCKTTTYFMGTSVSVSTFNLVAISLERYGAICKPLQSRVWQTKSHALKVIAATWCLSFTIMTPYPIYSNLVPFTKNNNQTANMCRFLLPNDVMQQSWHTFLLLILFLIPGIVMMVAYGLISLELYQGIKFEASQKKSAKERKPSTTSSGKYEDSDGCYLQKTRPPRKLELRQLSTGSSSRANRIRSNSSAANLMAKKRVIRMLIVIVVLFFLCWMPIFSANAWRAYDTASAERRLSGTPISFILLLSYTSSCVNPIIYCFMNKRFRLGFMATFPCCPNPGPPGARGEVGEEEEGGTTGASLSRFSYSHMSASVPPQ

Compound: Cc1c(Cc2ccc(Cl)nc2)cc2c(c1Cl)OCN([C@H]1CCC[C@@H]1O)C2=O [T‐495, 8‐chloro‐6‐((6‐chloropyridin‐3‐yl)methyl)‐3‐((1S,2S)‐2‐hydroxycyclopentyl)‐7‐methyl‐2,3‐dihydro‐4H‐1,3‐benzoxazin‐4‐one]
- inhibition at 10 µM (Adenosine A1): 15%
- inhibition at 10 µM (Adenosine A2A): -4%
- inhibition at 10 µM (Adenosine A2B): 7%
- % inhibition at 10 μM [1]: 11%
- % inhibition at 10 μM [2]: 26%
- % inhibition at 10 μM (Androgen (testosterone)): 3%
- inhibition at 10 µM (Angiotensin AT1): 23%
- % inhibition at 10 μM [3]: 19%
- inhibition at 10 µM (Calcium channel N-type): 0%
- inhibition at 10 µM (Cannabinoid CB2): 12%
- inhibition at 10 µM [4]: 2%
- inhibition at 10 µM [5]: 10%
- inhibition at 10 µM (Dopamine D3): -3%
- % inhibition at 10 μM (Dopamine D4.2): 3%
- % inhibition at 10 μM [6]: 5%
- inhibition at 10 µM (GABAB1B): 6%
- inhibition at 10 µM (Glucocorticoid): 25%
- % inhibition at 10 μM (Glutamate, NMDA): 14%
- % inhibition at 10 μM (Imidazoline I2, central): 76%
- inhibition at 10 µM (Melatonin MT1): 29%
- inhibition at 10 µM (Muscarinic M1): 15%
- inhibition at 10 µM (Opiate δ1 (OP1, DOP)): 4%
- inhibition at 10 µM (Opiate κ (OP2, KOP)): 14%
- % inhibition at 10 μM (Potassium channel (KATP)): 2%
- % inhibition at 10 μM (Potassium channel (SKCA)): 1%
- inhibition at 10 µM (Progesterone PR-B): 21%
- inhibition at 10 µM (Serotonin 5-HT1A): 8%
- inhibition at 10 µM (Serotonin 5-HT2A): 20%
- inhibition at 10 µM (Serotonin 5-HT2B): 28%
- % inhibition at 10 μM (Serotonin 5-HT4): 22%
- % inhibition at 10 μM (Sigma, non-selective): 25%
- % inhibition at 10 μM (Sodium channel, Site 2): 1%
- inhibition at 10 µM (Tachykinin NK3): 5%
- % inhibition at 10 μM (Transporter, GABA): -7%
- inhibition at 10 µM [7]: 58%
- inhibition at 10 µM [8]: 17%
- inhibition at 10 µM (Vasopressin V1A): 7%
- inhibition at 10 µM (Vasopressin V2): -7%
